Assay results from US20260325685A1, “Radiopharmaceutical Compositions Targeting Carbonic Anhydrase IX and Uses Thereof” (RayzeBio, Inc., priority 2023, published 2026).
Read-outs that look alike come from different tables or passages of the source.

Key:
human CA-XII = molecular target: T1, human CA-XII (Homo sapiens, UniProt O43570); assay: Surface Plasmon Resonance (SPR) binding kinetics to recombinant human CA-XII (Biacore 8K, single-cycle kinetics, 1:1 binding model)
T1 construct: purchased Creative BioMart CA12-261H
T1 sequence (O43570 25-354): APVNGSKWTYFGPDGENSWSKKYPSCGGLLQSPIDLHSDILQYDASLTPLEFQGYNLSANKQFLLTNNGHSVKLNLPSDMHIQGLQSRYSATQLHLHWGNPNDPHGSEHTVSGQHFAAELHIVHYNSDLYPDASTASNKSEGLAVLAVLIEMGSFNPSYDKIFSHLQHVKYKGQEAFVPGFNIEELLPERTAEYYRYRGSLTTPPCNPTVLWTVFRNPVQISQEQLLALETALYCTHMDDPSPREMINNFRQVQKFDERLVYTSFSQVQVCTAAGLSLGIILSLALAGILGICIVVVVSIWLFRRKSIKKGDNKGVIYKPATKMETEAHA
Procedure: (§1) G1. Surface Plasmon Resonance Assay Conditions for hCA-IX and hCA-XII
(§2) Surface Plasmon Resonance (SPR) experiments were conducted on a Biacore 8K instrument (Cytiva, Marlborough, MA) to determine the binding kinetics of the compound to recombinant human CA-IX (Acro, CA9-H82E3) and CA-XII (Creative BioMart, CA12-261H) proteins. The ligands were diluted to 10 μg/mL in PBS-P+ buffer (20 mM phosphate buffer, pH 7.4, with 2.7 mM KCl, 137 mM NaCl, and 0.05% Tween 20) and captured on Series S Streptavidin Sensor Chips (Cytiva, 29699621) to 1200-1800 response units (RU) using a flow rate of 5 μL/min and injection times of 180 seconds for human CA-IX and 75 seconds for human CA-XII. Analyte binding was evaluated using a single-cycle kinetics method over 9 analyte concentrations (100-0.39 nM) in PBS-P+ buffer with 1% DMSO using a 50 μL/min. flow rate, 120 second association time, and 1200 second dissociation time. The flow cell temperature was set to 25° C. Analyte binding curves were fit to a 1:1 binding kinetic model in Biacore Insight Evaluation software (version 4.0.8.20368) following reference flow cell subtraction and DMSO correction to derive the association and dissociation binding constants.

human CA-IX = molecular target: T2, human CA-IX (Homo sapiens, UniProt Q16790); assay: Surface Plasmon Resonance (SPR) binding kinetics to recombinant human CA-IX (Biacore 8K, single-cycle kinetics, 1:1 binding model)
T2 construct: purchased Acro CA9-H82E3
Procedure: as §1, §2

[1] = Chelated Metal: Lu-175, 25° C., pH 7.4, read-out: CAXII KD
[2] = Chelated Metal: Lu-175; SPR, 25° C., pH 7.4; read-out: CAIX KD

CC(CCC(=O)N[C@@H](CC(=O)N[C@@H](CC(=O)N1CCN(C(=O)CN2CCN(CC(=O)O)CCN(CC(=O)O)CCN(CC(=O)O)CC2)C[C@H]1C(=O)NCCn1cc(C23CC(C(=O)Nc4nnc(S(N)(=O)=O)s4)(C2)C3)nn1)C(=O)O)C(=O)O)(c1ccc(O)cc1)c1ccc(O)cc1.[Lu+3] [Compound 106]
Kd (human CA-XII; read-out: CAXII KD, Chelated Metal: Lu-175, 25° C., pH 7.4): 2.5 to 10 nM | Kd (human CA-IX; read-out: CAIX KD; Chelated Metal: Lu-175; SPR, 25° C., pH 7.4): < 1 nM

CC(CCC(=O)N[C@@H](CC(=O)N[C@@H](CC(=O)N1CCN(C(=O)CN2CCN(CC(=O)O)CCN(CC(=O)O)CCN(CC(=O)O)CC2)CC1C(=O)NCCn1cc(C23CCC(C(=O)Nc4nnc(S(N)(=O)=O)s4)(CC2)C3)nn1)C(=O)O)C(=O)O)(c1ccc(O)cc1)c1ccc(O)cc1.[Lu+3] (some centres unmarked) [Compound 107.1]
Kd (human CA-XII; [1]): < 1 nM | Kd (human CA-IX; [2]): < 1 nM

CC(CCC(=O)N[C@@H](CC(=O)N[C@@H](CC(=O)N1CCN(C(=O)CN2CCN(CC(=O)O)CCN(CC(=O)O)CCN(CC(=O)O)CC2)C[C@H]1C(=O)NCCn1cc(C23CCC(C(=O)Nc4nnc(S(N)(=O)=O)s4)(CC2)C3)nn1)C(=O)O)C(=O)O)(c1ccc(O)cc1)c1ccc(O)cc1.[Lu+3] [Compound 107.2]
Kd (human CA-XII; [1]): < 1 nM | Kd (human CA-IX; [2]): < 1 nM

CC(CCC(=O)N[C@@H](CC(=O)N[C@@H](CC(=O)N1CCN(C(=O)CN2CCN(CC(=O)O)CCN(CC(=O)O)CCN(CC(=O)O)CC2)C[C@@H]1C(=O)NCCn1cc(C23CC(C(=O)Nc4nnc(S(N)(=O)=O)s4)(C2)C3)nn1)C(=O)O)C(=O)O)(c1ccc(O)cc1)c1ccc(O)cc1.[Lu+3] [Compound 107.3]
Kd (human CA-XII; [1]): > 10 nM | Kd (human CA-IX; [2]): 1 to 2.5 nM

CC(CCC(=O)N1CCC(C(=O)O)(C(=O)NCC(=O)N2CCN(C(=O)CN3CCN(CC(=O)O)CCN(CC(=O)O)CCN(CC(=O)O)CC3)C[C@@H]2C(=O)NCCn2cc(C34CC(C(=O)Nc5nnc(S(N)(=O)=O)s5)(C3)C4)nn2)CC1)(c1ccc(O)cc1)c1ccc(O)cc1.[Lu+3] [Compound 107.4]
Kd (human CA-XII; [1]): > 10 nM | Kd (human CA-IX; [2]): 1 to 2.5 nM

CC(CCC(=O)N[C@@H](CC(=O)N[C@@H](CC(=O)N1CCN(C(=O)CN2CCN(CC(=O)O)CCN(CC(=O)O)CCN(CC(=O)O)CC2)C[C@H]1C(=O)NCCn1cc(C23CCC(C(=O)Nc4nnc(S(N)(=O)=O)s4)(C2)C3)nn1)C(=O)O)C(=O)O)(c1ccc(O)cc1)c1ccc(O)cc1.[Lu+3] [Compound 107.5]
Kd (human CA-XII; [1]): < 1 nM | Kd (human CA-IX; [2]): < 1 nM

CC(CCCC(=O)N1CCC(C(=O)O)(C(=O)NCC(=O)N2CCN(C(=O)CN3CCN(CC(=O)O)CCN(CC(=O)O)CCN(CC(=O)O)CC3)C[C@@H]2C(=O)NCCn2cc(C34CC(C(=O)Nc5nnc(S(N)(=O)=O)s5)(C3)C4)nn2)CC1)(c1ccc(O)cc1)c1ccc(O)cc1.[Lu+3] [Compound 107.6]
Kd (human CA-XII; [1]): > 10 nM | Kd (human CA-IX; [2]): < 1 nM

NS(=O)(=O)c1nnc(NC(=O)C23CCC(c4cn(CCNC(=O)[C@@H]5CN(C(=O)CN6CCN(CC(=O)O)CCN(CC(=O)O)CCN(CC(=O)O)CC6)CCN5C(=O)CNC(=O)C5(C(=O)O)CCN(C(=O)CCCc6ccc(O)cc6)CC5)nn4)(CC2)CC3)s1.[Lu+3] [Compound 107.7]
Kd (human CA-XII; [1]): 1 to 2.5 nM | Kd (human CA-IX; [2]): < 1 nM

CC(CCC(=O)N1CCOC[C@H]1C(=O)N[C@@H](CC(=O)N1CCN(C(=O)CN2CCN(CC(=O)O)CCN(CC(=O)O)CCN(CC(=O)O)CC2)C[C@@H]1C(=O)NCCn1cc(C23CC(C(=O)Nc4nnc(S(N)(=O)=O)s4)(C2)C3)nn1)C(=O)O)(c1ccc(O)cc1)c1ccc(O)cc1.[Lu+3] [Compound 107.8]
Kd (human CA-XII; [1]): > 10 nM | Kd (human CA-IX; [2]): 1 to 2.5 nM

CC(CCCC(=O)N1CCC(C(=O)O)(C(=O)NCC(=O)N2CCN(C(=O)CN3CCN(CC(=O)O)CCN(CC(=O)O)CCN(CC(=O)O)CC3)C[C@H]2C(=O)NCCn2cc(C34CCC(C(=O)Nc5nnc(S(N)(=O)=O)s5)(CC3)CC4)nn2)CC1)(c1ccc(O)cc1)c1ccc(O)cc1.[Lu+3] [Compound 107.9]
Kd (human CA-XII; [1]): 1 to 2.5 nM | Kd (human CA-IX; [2]): < 1 nM

NS(=O)(=O)c1nnc(NC(=O)C23CCC(c4cn(CCNC(=O)[C@@H]5CN(C(=O)CN6CCN(CC(=O)O)CCN(CC(=O)O)CCN(CC(=O)O)CC6)CCN5C(=O)CNC(=O)C5(C(=O)O)CCN(C(=O)CCC6CCCCC6)CC5)nn4)(CC2)CC3)s1.[Lu+3] [Compound 107.10]
Kd (human CA-XII; [1]): < 1 nM | Kd (human CA-IX; [2]): < 1 nM

CC(CCC(=O)N[C@@H](CCC(=O)N1CCN(C(=O)CN2CCN(CC(=O)O)CCN(CC(=O)O)CCN(CC(=O)O)CC2)C[C@@H]1C(=O)NCCn1cc(C23CC(C(=O)Nc4nnc(S(N)(=O)=O)s4)(C2)C3)nn1)C(=O)O)(c1ccc(O)cc1)c1ccc(O)cc1.[Lu+3] [Compound 107.11]
Kd (human CA-XII; [1]): > 10 nM | Kd (human CA-IX; [2]): < 1 nM

CC(CCCC(=O)N1CCC(C(=O)O)(C(=O)NCC(=O)N2CCN(C(=O)CN3CCN(CC(=O)O)CCN(CC(=O)O)CCN(CC(=O)O)CC3)C[C@@H]2C(=O)NCCn2cc(C34CC(C(=O)Nc5nnc(S(N)(=O)=O)s5)(C3)C4)nn2)CC1)(c1ccc(O)cc1)c1ccc(O)cc1.[Lu+3] [Compound 107.12]
Kd (human CA-XII; [1]): > 10 nM | Kd (human CA-IX; [2]): 1 to 2.5 nM

CC(CCC(=O)N[C@@H](CC(=O)N[C@@H](CCC(=O)N1CCN(C(=O)CN2CCN(CC(=O)O)CCN(CC(=O)O)CCN(CC(=O)O)CC2)C[C@@H]1C(=O)NCCn1cc(C23CC(C(=O)Nc4nnc(S(N)(=O)=O)s4)(C2)C3)nn1)C(=O)O)C(=O)O)(c1ccc(O)cc1)c1ccc(O)cc1.[Lu+3] [Compound 107.13]
Kd (human CA-XII; [1]): > 10 nM | Kd (human CA-IX; [2]): 1 to 2.5 nM

CC(CCC(=O)N[C@@H](CC(=O)N[C@@H](CCC(=O)N1CCN(C(=O)CN2CCN(CC(=O)O)CCN(CC(=O)O)CCN(CC(=O)O)CC2)C[C@@H]1Cn1cc(C23CC(C(=O)Nc4nnc(S(N)(=O)=O)s4)(C2)C3)nn1)C(=O)O)C(=O)O)(c1ccc(O)cc1)c1ccc(O)cc1.[Lu+3] [Compound 107.14]
Kd (human CA-XII; [1]): < 1 nM | Kd (human CA-IX; [2]): < 1 nM

CCCCNc1c(F)c(S(N)(=O)=O)c(F)c(F)c1S(=O)(=O)CCOCc1cn(CCNC(=O)[C@H]2CN(C(=O)CN3CCN(CC(=O)O)CCN(CC(=O)O)CCN(CC(=O)O)CC3)CCN2C(=O)C[C@H](NC(=O)[C@@H]2COCCN2C(=O)CCC(C)(c2ccc(O)cc2)c2ccc(O)cc2)C(=O)O)nn1.[Lu+3] [Compound 107.15]
Kd (human CA-XII; [1]): > 10 nM | Kd (human CA-IX; [2]): 1 to 2.5 nM

NS(=O)(=O)c1nnc(NC(=O)C23CC(c4cn(CCNC(=O)[C@H]5CN(C(=O)CN6CCN(CC(=O)O)CCN(CC(=O)O)CCN(CC(=O)O)CC6)CCN5C(=O)CC[C@H](NC(=O)Cc5n[nH]c6ccccc56)C(=O)O)nn4)(C2)C3)s1.[Lu+3] [Compound 107.16]
Kd (human CA-XII; [1]): 2.5 to 10 nM | Kd (human CA-IX; [2]): 1 to 2.5 nM

NS(=O)(=O)c1nnc(NC(=O)C23CC(c4cn(CCNC(=O)[C@H]5CN(C(=O)CN6CCN(CC(=O)O)CCN(CC(=O)O)CCN(CC(=O)O)CC6)CCN5C(=O)CC[C@H](NC(=O)c5n[nH]c6ccccc56)C(=O)O)nn4)(C2)C3)s1.[Lu+3] [Compound 107.17]
Kd (human CA-XII; [1]): 1 to 2.5 nM | Kd (human CA-IX; [2]): < 1 nM

NS(=O)(=O)c1nnc(NC(=O)C23CC(c4cn(CCNC(=O)[C@H]5CN(C(=O)CN6CCN(CC(=O)O)CCN(CC(=O)O)CCN(CC(=O)O)CC6)CCN5C(=O)[C@@H]5COCCN5C(=O)Cc5n[nH]c6ccccc56)nn4)(C2)C3)s1.[Lu+3] [Compound 107.18]
Kd (human CA-XII; [1]): > 10 nM | Kd (human CA-IX; [2]): 2.5 to 10 nM

CC(CCC(=O)N1CCOC[C@H]1C(=O)N[C@@H](CC(=O)N1CCN(C(=O)CN2CCN(CC(=O)O)CCN(CC(=O)O)CCN(CC(=O)O)CC2)C[C@@H]1C(=O)NCCn1cc(C23CC(C(=O)Nc4nnc(S(N)(=O)=O)s4)(C2)C3)nn1)C(N)=O)(c1ccc(O)cc1)c1ccc(O)cc1.[Lu+3] [Compound 107.19]
Kd (human CA-XII; [1]): > 10 nM | Kd (human CA-IX; [2]): 1 to 2.5 nM

CC(CCC(=O)N[C@H](CC(=O)N[C@H](CC(=O)N1CCN(C(=O)CN2CCN(CC(=O)O)CCN(CC(=O)O)CCN(CC(=O)O)CC2)C[C@H]1C(=O)NCCn1cc(C23CC(C(=O)Nc4nnc(S(N)(=O)=O)s4)(C2)C3)nn1)C(=O)O)C(=O)O)(c1ccc(O)cc1)c1ccc(O)cc1.[Lu+3] [Compound 107.21]
Kd (human CA-XII; [1]): > 10 nM | Kd (human CA-IX; [2]): 1 to 2.5 nM

CC(CCC(=O)N[C@@H](CC(=O)N[C@@H](CC(=O)N1CCN(C(=O)CN2CCN(CC(=O)O)CCN(CC(=O)O)CCN(CC(=O)O)CC2)C[C@H]1C(=O)NCCn1cc(-c2ccc(C(=O)Nc3nnc(S(N)(=O)=O)s3)cc2)nn1)C(=O)O)C(=O)O)(c1ccc(O)cc1)c1ccc(O)cc1.[Lu+3] [Compound 107.22]
Kd (human CA-XII; [1]): > 10 nM | Kd (human CA-IX; [2]): 1 to 2.5 nM

CC(CCCC(=O)N1CCC(C(=O)O)(C(=O)NCC(=O)N2CCN(C(=O)CN3CCN(CC(=O)O)CCN(CC(=O)O)CCN(CC(=O)O)CC3)C[C@@H]2C(=O)N[C@@H](Cn2cc(C34CC(C(=O)Nc5nnc(S(N)(=O)=O)s5)(C3)C4)nn2)C(=O)O)CC1)(c1ccc(O)cc1)c1ccc(O)cc1.[Lu+3] [Compound 107.23]
Kd (human CA-XII; [1]): > 10 nM | Kd (human CA-IX; [2]): < 1 nM

CC(CCCC(=O)N1CCC(C(=O)O)(C(=O)NCC(=O)N2CCN(C(=O)CN3CCN(CC(=O)O)CCN(CC(=O)O)CCN(CC(=O)O)CC3)C[C@@H]2C(=O)NCCn2cc(C34CCC(C(=O)Nc5nnc(S(N)(=O)=O)s5)(C3)C4)nn2)CC1)(c1ccc(O)cc1)c1ccc(O)cc1.[Lu+3] [Compound 107.24]
Kd (human CA-XII; [1]): 2.5 to 10 nM | Kd (human CA-IX; [2]): 1 to 2.5 nM

CN1CCN(C(=O)CCCC(C)(c2ccc(O)cc2)c2ccc(O)cc2)[C@H](C(=O)N[C@@H](CC(=O)N2CCN(C(=O)CN3CCN(CC(=O)O)CCN(CC(=O)O)CCN(CC(=O)O)CC3)C[C@@H]2C(=O)NCCn2cc(C34CC(C(=O)Nc5nnc(S(N)(=O)=O)s5)(C3)C4)nn2)C(=O)O)C1.[Lu+3] [Compound 107.25]
Kd (human CA-XII; [1]): > 10 nM | Kd (human CA-IX; [2]): < 1 nM
